{"source": "patent US4849207A", "about": "“Porphyrin derivatives” (Nihon Medi-Physics Co., Ltd., priority 1985, dated 1989)", "key": {"pancreatic cancer [1]": {"system": "pancreatic cancer", "test": "Scintigraphy in cancer-bearing hamster", "format": "in vivo", "details": "300 μCi i.v., 72 and 96 hours after administration", "experimental": "(§1) Scintigraphy was obtained 72 and 96 hours after the administration by the use of a gamma-camera equipped with a medium energy high resolution type collimator."}, "pancreatic cancer [2]": {"system": "pancreatic cancer", "test": "Distribution of a radioactive diagnostic agent in cancer-bearing hamster (cancer/organ radioactivity level ratio)", "details": "300 μCi i.v., 96 hours after administration", "experimental": "With lapse of time, the animals were sacrificed, and the organs were extracted and subjected to measurement of radioactivity and weight, from which the radioactivity level ratio between the cancer and each organ was determined.\nWith lapse of time, the animals were sacrificed, and the ogans were extracted and subjected to measurement of radioactivity and weight, from which the radioactivity level ratio between the cancer and each organ was determined."}, "tumor": {"system": "tumor", "test": "Distribution in cancer-bearing and inflammation-induced hamsters, tumor to tissue", "experimental": "as §1"}, "[3]": {"system": "inflammation (turpentine oil induced)", "test": "Distribution in cancer-bearing and inflammation-induced hamsters, inflammation to tissue", "details": "72 hour post-injection", "experimental": "as §1"}, "[4]": {"system": "inflammation (croton oil induced)", "test": "Distribution in inflammation-induced rats, inflammation to tissue", "format": "in vivo, SD rats", "description": "SD rats of about 200 grams in bodyweight received croton oil (0.1 ml) at the right hind leg subcutaneously to induce inflammation. […] The radioactivity level ratio between the inflamation and each tissue was determined."}, "[5]": {"details": "72 hour post-injection, mean and s.d. for 3 animals, or mean for 2 animals"}, "[6]": {"details": "hamster, mean and s.d. for 3 animals, or mean for 2 animals"}, "[7]": {"details": "SD rat, 72 hour post-injection, mean and s.d. for 3 animals"}}}
{"substance": "2-[1-(^111 In-diethylenetriamine-tetraacetic acid-acetyloxyethane)oxyethyl]-4-[1-(2-hydroxyethyl)oxyethyl] Ga-deuteroporphyrin [^111 In--monoDTPA--EG Ga--DP]", "values": [{"measurement": "scintigraphic imaging of the locus of cancer", "setting": "pancreatic cancer [1]", "result": "the locus of cancer could be clearly imaged at both stages"}, {"measurement": "Cancer/Blood radioactivity level ratio", "setting": "pancreatic cancer [2]", "result": 61.89}, {"measurement": "Cancer/Heart radioactivity level ratio", "setting": "pancreatic cancer [2]", "result": 3.41}, {"measurement": "Cancer/Kidney radioactivity level ratio", "setting": "pancreatic cancer [2]", "result": 0.91}, {"measurement": "Cancer/Liver radioactivity level ratio", "setting": "pancreatic cancer [2]", "result": 0.53}, {"measurement": "Cancer/Lung radioactivity level ratio", "setting": "pancreatic cancer [2]", "result": 1.33}, {"measurement": "Cancer/Spleen radioactivity level ratio", "setting": "pancreatic cancer [2]", "result": 0.43}, {"measurement": "imaging of tumor compared with ^67 Ga citrate (in words)", "setting": "tumor; 72 hour post-injection", "result": "superior to ^67 Ga citrate"}, {"measurement": "Tumor to tissue concentration ratio: Blood", "setting": "tumor; [5]", "result": "55.75 ± 10.61"}, {"measurement": "Tumor to tissue concentration ratio: Heart", "setting": "tumor; [5]", "result": "1.14 ± 0.28"}, {"measurement": "Tumor to tissue concentration ratio: Kidney", "setting": "tumor; [5]", "result": "0.79 ± 0.08"}, {"measurement": "Tumor to tissue concentration ratio: Liver", "setting": "tumor; [5]", "result": "0.21 ± 0.06"}, {"measurement": "Tumor to tissue concentration ratio: Lung", "setting": "tumor; [5]", "result": "0.52 ± 0.33"}, {"measurement": "Tumor to tissue concentration ratio: Muscle", "setting": "tumor; [5]", "result": "22.16 ± 6.53"}, {"measurement": "Tumor to tissue concentration ratio: Spleen", "setting": "tumor; [5]", "result": "0.16 ± 0.03"}, {"measurement": "affinities to tumor and inflammation (in words)", "setting": "tumor; from Table 5, compared with each other", "result": "nearly equal in affinities to tumor and inflammation"}, {"measurement": "imaging of inflammation compared with ^67 Ga citrate (in words)", "setting": "[3]", "result": "inferior to ^67 Ga citrate"}, {"measurement": "Inflammation to tissue concentration ratio: Blood", "setting": "[3]; [6]", "result": "22.96 ± 9.56"}, {"measurement": "Inflammation to tissue concentration ratio: Heart", "setting": "[3]; [6]", "result": "0.49 ± 0.26"}, {"measurement": "Inflammation to tissue concentration ratio: Kidney", "setting": "[3]; [6]", "result": "0.33 ± 0.13"}, {"measurement": "Inflammation to tissue concentration ratio: Liver", "setting": "[3]; [6]", "result": "0.21 ± 0.16"}, {"measurement": "Inflammation to tissue concentration ratio: Lung", "setting": "[3]; [6]", "result": "0.21 ± 0.14"}, {"measurement": "Inflammation to tissue concentration ratio: Muscle", "setting": "[3]; [6]", "result": "8.71 ± 2.98"}, {"measurement": "Inflammation to tissue concentration ratio: Spleen", "setting": "[3]; [6]", "result": "0.06 ± 0.01"}, {"measurement": "Inflammation to tissue concentration ratio: Blood", "setting": "[4]; [7]", "result": "185.25 ± 82.70"}, {"measurement": "Inflammation to tissue concentration ratio: Heart", "setting": "[4]; [7]", "result": "2.40 ± 0.63"}, {"measurement": "Inflammation to tissue concentration ratio: Kidney", "setting": "[4]; [7]", "result": "1.42 ± 0.35"}, {"measurement": "Inflammation to tissue concentration ratio: Liver", "setting": "[4]; [7]", "result": "0.14 ± 0.04"}, {"measurement": "Inflammation to tissue concentration ratio: Lung", "setting": "[4]; [7]", "result": "1.43 ± 0.32"}, {"measurement": "Inflammation to tissue concentration ratio: Muscle", "setting": "[4]; [7]", "result": "19.23 ± 10.45"}, {"measurement": "Inflammation to tissue concentration ratio: Spleen", "setting": "[4]; [7]", "result": "0.18 ± 0.03"}, {"measurement": "accumulation in inflammation compared with ^67 Ga citrate (in words)", "setting": "[4]; from Table 6", "result": "much lesser accumulation in inflammation than ^67 Ga citrate"}]}
